According to patent publication US11510928B2, “Use of mirtazapine in the treatment of inflammatory disorders, autoimmune disease and PBC” (UTI Limited Partnership, priority 2017, dated 2022):

Key:
[1] = Liver injury after mirtazapine alone (serum ALT, histology); format: in vivo, mouse; conditions: data not shown
Description: Male 8-10 week old C57BL/6 mice (Jackson Labs, Bar Harbor, Me.) were used. All procedures were approved by the University of Calgary Animal Care Committee (protocol numbers AC14-0129 and AC14-0128) and were performed in accordance with the guidelines of the Canadian Council on Animal Care. To delineate the impact of mirtazapine treatment upon liver immune cell numbers and phenotype, and upon cytokine/chemokine networks within the liver, mice were treated with mirtazapine 1-20 mg/kg intraperitoneally^13-15. Mirtazapine was suspended in 1% aqueous solution of Tween 80, whereas the control group received 1% aqueous solution of Tween 80. Blood and liver samples were collected 5 hours post-mirtazapine treatment (or 16 hours post-Con A treatment). The detailed experimental protocols, lists of antibodies and reagents used, flow cytometry gating, and immune cell phenotyping strategies, are described herein.
To assess liver injury, plasma alanine aminotransferase (ALT) activity was measured (Roche-Hitachi Modular-P800 apparatus; Roche, Mannheim, Germany). Additionally, formalin-fixed liver tissue slices were stained with Hematoxylin and Eosin (H&E) for microscopic examination. Extent of liver parenchymal necrosis was quantitated as previously described, using an Olympus XC10 camera (acquired using the Olympus VS-ASW software package; original magnification ×400). […]

[2] = test system: hepatic CXCL10/IP-10, CXCL9/MIG, ICAM-1 and VCAM-1 expression; assay: Immunohistochemistry of liver sections after mirtazapine treatment; format: in vivo, mouse
Description: Male 8-10 week old C57BL/6 mice (Jackson Labs, Bar Harbor, Me.) were used. All procedures were approved by the University of Calgary Animal Care Committee (protocol numbers AC14-0129 and AC14-0128) and were performed in accordance with the guidelines of the Canadian Council on Animal Care. To delineate the impact of mirtazapine treatment upon liver immune cell numbers and phenotype, and upon cytokine/chemokine networks within the liver, mice were treated with mirtazapine 1-20 mg/kg intraperitoneally^13-15. Mirtazapine was suspended in 1% aqueous solution of Tween 80, whereas the control group received 1% aqueous solution of Tween 80. Blood and liver samples were collected 5 hours post-mirtazapine treatment (or 16 hours post-Con A treatment). The detailed experimental protocols, lists of antibodies and reagents used, flow cytometry gating, and immune cell phenotyping strategies, are described herein. Hepatic CXCL10/IP-10, CXCL9/MIG, ICAM-1 and VCAM-1 expression were determined using immunohistochemistry, as previously described. Briefly, following initial deparaffinization and rehydration of tissue sections, antigen retrieval was performed in lx Citrate buffer, PH 6.0 (Abcam) for IP-10/CXCL9 and MIG/CXCL9, or in 1X EDTA buffer pH 8.0 for ICAM1 and VCAM-1. In all cases slides were incubated in antigen retrieval buffer at 95-100° C. for 20 minutes. […] This was followed by incubation with biotinylated rabbit anti-goat, goat-anti rat or goat anti-rabbit secondary antibodies (at 1:150) for 1 hour at room temperature (Vector Labs). Negative staining controls were performed by omission of primary antibody, or by omission of both primary and secondary antibodies. […] This was followed by incubation with Vectastain Elite ABC kit (Vector Laboratories) for 30 min at room temperature. Color was developed with Nova Red Chromogen (ImmPACT NovaRED Peroxidase Substrate, Vector Lab, Burlingame, Calif.), after which sections were counterstained with hematoxylin (EMD Millipore). Mounted slides were converted to virtual slides with a BX61 VS virtual microscopy system equipped with an XC10 camera and VS ASW software (Olympus) (original magnification ×400). For ICAM-1, VCAM1, CXCL9/Mig, and CXCL10/IP10 expression, all scanned virtual slides of the sections were examined in a blinded fashion, and expression patterns evaluated and described.

[3] = test system: patients in the UK THIN database; assay: Retrospective THIN cohort study: incidence of autoimmune diseases with mirtazapine exposure (Example 7); format: in vivo, human; conditions: exposed vs matched (2:1) non-exposed cohort
Description: Patients who were prescribed mirtazapine. 90 day ([…]) identified and compared to a matched patient cohort (2:1) not exposed to mirtazapine (n=372,822). Out models were adjusted for depression, use of other antidepressants, comorbidity status, smoking and alcohol consumption.

## CN1CCN2c3ncccc3Cc3ccccc3C2C1 (centres unmarked) [Mirtazapine]
[1]
  Liver injury as reflected by serum ALT levels or histology: did not induce liver injury
[2]; hepatocytes and sinusoidal endothelium, vs vehicle
  Hepatic CXCL10 expression (IHC): strikingly increased
[2]; normal liver, vs vehicle
  Hepatic ICAM-1 expression (IHC): did not notably alter ICAM-1 expression
  Hepatic VCAM-1 expression (IHC): enhanced VCAM-1 staining intensity in sinusoidal endothelium and a marked increase in VCAM-1 expression intensity in sinusoidal immune cells
[2]; vs vehicle treated mice
  Hepatic CXCL9 staining (IHC): increased CXCL9 staining mainly within hepatocytes
[3]
  Adjusted Incidence Rate Ratio (adjusted IRR), Multiple Sclerosis: 0.80
  Adjusted Incidence Rate Ratio (adjusted IRR), Psoriasis: 0.93
  Adjusted Incidence Rate Ratio (adjusted IRR), Rheumatoid Arthritis: 0.55
